ChEMBL document CHEMBL1201862, “PubChem BioAssay data set” (2004)
The source made the active and inactive calls.

Experiments:
[1] = target: Paired box protein Pax-8 (Homo sapiens, UniProt Q06710); assay: PAX8 transcriptional activity inhibition in RMG-I – RMG-I cells, luciferase, cherry-pick, dose response (AID 687027); type: functional, cell-based;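 note: luciferase reporter driven by Pax8 target thyroperoxidase promoter measured by SteadyGlo luminescence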
[2] = CMV-driven luciferase expression suppression in HEK293 – cell-based, luminescence, dry powder, counter-screen for Pax8 inhibitor project, dose response (AID 743020); type: functional
[3] = target: Cytochrome P450 2C19 (Homo sapiens, UniProt P33261); assay: Cytochrome panel assay with activity outcomes. Panel member name: p450-cyp2c19 Compounds with AC50 equal or less than 10 uM are considered active; type: functional; settings: read-out: AC50
[4] = target: T1, Cytochrome P450 1A2 (Homo sapiens, UniProt P05177);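 note: PubChem cytochrome P450 panel assay, CYP1A2 panel member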
T1 sequence (P05177 whole entry): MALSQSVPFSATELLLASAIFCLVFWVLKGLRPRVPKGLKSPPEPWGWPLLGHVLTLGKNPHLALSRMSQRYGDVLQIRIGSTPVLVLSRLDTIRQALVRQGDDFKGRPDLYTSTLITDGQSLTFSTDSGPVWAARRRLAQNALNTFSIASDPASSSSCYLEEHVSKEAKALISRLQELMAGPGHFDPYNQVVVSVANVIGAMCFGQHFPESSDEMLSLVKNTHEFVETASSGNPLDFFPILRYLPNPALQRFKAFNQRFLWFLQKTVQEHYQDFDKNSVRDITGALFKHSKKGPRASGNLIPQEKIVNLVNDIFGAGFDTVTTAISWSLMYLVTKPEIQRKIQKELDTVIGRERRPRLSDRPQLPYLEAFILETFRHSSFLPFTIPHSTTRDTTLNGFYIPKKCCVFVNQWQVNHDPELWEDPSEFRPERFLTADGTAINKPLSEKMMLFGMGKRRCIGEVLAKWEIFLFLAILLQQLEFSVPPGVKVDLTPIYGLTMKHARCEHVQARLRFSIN

[5] = target: Beta-galactosidase (Escherichia coli, UniProt Q8VNN2); assay: Dose response counterscreen for EBI2 assay utilizing the enzyme, b-galactosidase.; type: functional
[6] = target: Major prion protein (Homo sapiens, UniProt P04156); type: functional, cell-based
[7] = cells
[8] = Trypanosoma cruzi growth suppression in host cells – NIH3T3 host cells, beta-gal luminescence, confirmation (AID 2044); type: functional, cell-based;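 note: intracellular parasites grown in NIH/3T3 mouse fibroblasts as host cells; luminescent beta-galactosidase reporter signal from transgenic T. cruzi replicating inside host cells; inhibitors lower the luminescence signal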
[9] = potency of ADAM10 substrate cleavage blockers – biochemical, QFRET, dose response (AID 743254);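 note: ADAM10 enzyme with the DM2 quenched FRET peptide as substrate; EDANS fluorescence gain as the protease cuts the substrate; inhibitor potency against ADAM10 proteolytic activity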
[10] = target: T2, Disintegrin and metalloproteinase domain-containing protein 17 (Homo sapiens, UniProt P78536); assay: inhibition of ADAM17 substrate cleavage – biochemical, quenched FRET substrate, counter-screen for ADAM10 exosite inhibitor project, dose response (AID 743253)
[11] = NIH3T3 cell viability loss – ATP luminescence, mouse fibroblasts, counter-screen, dose response (AID 2010); type: functional, cell-based;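 note: cells exposed to compound for about 90 hours before reading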
[12] = inhibition of bursicon-driven LGR2 cAMP signaling – cell-based, HEK293, CRE-luciferase reporter, cherry pick, dose response (AID 743342); type: functional
[13] = blockade of melanocortin 4 receptor signaling – cell-based, plate reader, cherry pick, counter-screen for LGR2 antagonist project, dose response (AID 743444); type: functional;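 note: transfected HEK 293 cells stimulated with alpha-MSH peptide; potency of inhibitors of the alpha-MSH evoked signal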
[14] = A549 cell cytotoxicity, dose response, cytotoxicity control, plate reader, cherry-pick, antagonist series (AID 743412); type: functional, cell-based
[15] = system: INS1; assay: INS-1E survival protection against cytokine death – cell-based, luminescence, retest, dose response (AID 449756); type: functional; settings: Rattus norvegicus;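 note: cell death triggered by IL-1 beta plus TNF-alpha plus IFN-gamma mixture; protective hits raise ATP signal compared with cytokine alone wells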
[16] = inhibition of ADAM10 peptide cleavage – biochemical, FRET peptide substrate, recombinant human ADAM10, selectivity assay for ADAM17 exosite inhibitor project, dose response (AID 743259);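 note: ADAM10 enzyme cleaving a FRET peptide substrate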
[17] = loss of viability in HepG2 cells – cell-based, CellTiter-Glo, cherry-picked, cytotoxicity control for Shn3 inhibitor project, dose response (AID 624134); type: functional
[18] = non-specific 3'UTR reporter inhibition in Clone20-Shn3RL – cell-based, Renilla luciferase, cherry-picked, counter-screen for Shn3 inhibitor project, dose response (AID 624133); type: functional
[19] = target: T2, Disintegrin and metalloproteinase domain-containing protein 17; assay: exosite inhibitors of ADAM17, dose response, biochemical (AID 743260)
[20] = reduction of Shn3 3'UTR-driven luciferase in osteoblasts – cell-based, Clone20 osteoblasts, firefly luciferase, cherry-picked, dose response (AID 624132); type: functional;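 note: firefly luciferase luminescence from reporter carrying the Shn3 3'UTR in osteoblasts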
[21] = target: Peroxisome proliferator-activated receptor gamma/Nuclear receptor coactivator 1 (Homo sapiens, UniProt P37231); assay: (§1) TR-FRET dose response biochemical High Throughput Screening assay for agonists of the steroid receptor coactivator 1 (SRC-1) recruitment by the peroxisome proliferator-activated receptor gamma (PPAR gamma): non-selective agonists. [Related pubchem assays (depositor defined):AID1300, AID1808, AID504735, AID631]; type: protein assay
[22] = target: Photoreceptor-specific nuclear receptor (Homo sapiens, UniProt Q9Y5X4); type: functional, cell-based;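 note: CHO-S cells with Gal4-NCOR and VP16-NR2E3 two-hybrid luciferase reporter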
[23] = Counterscreen for activators of the function of SWI/SNF related, matrix associated, actin dependent regulator of chromatin, subfamily a, member 2 (SMARCA2, BRM): Luminescence-based cell-based high throughput dose response assay to identify non-selective compounds using the VP16 reporter assay.; type: functional
[24] = target: Peroxisome proliferator-activated receptor gamma/Nuclear receptor coactivator 3 (Homo sapiens, UniProt P37231); assay: as §1, with “3 (SRC-3)” for “1 (SRC-1)”, “assays: 1301 (Confirmation screen.), 1048 (Primary screen.)]” for “assays (depositor defined):AID1300, AID1808, AID504735, AID631]”; type: functional
[25] = target: SWI/SNF-related matrix-associated actin-dependent regulator of chromatin subfamily A member 2 (Homo sapiens, UniProt P51531); assay: Luminescence-based cell-based high throughput dose response assay to identify activators of the function of SWI/SNF related, matrix associated, actin dependent regulator of chromatin, subfamily a, member 2 (SMARCA2, BRM).; type: functional
[26] = target: Peroxisome proliferator-activated receptor gamma/Nuclear receptor coactivator 2 (Homo sapiens, UniProt P37231); assay: TR-FRET dose response biochemical High Throughput Screening assay for agonists of the steroid receptor coactivator 2 (SRC-2) recruitment by the peroxisome proliferator-activated receptor gamma (PPAR gamma): non-selective agonists. [Related pubchem assays: 1297, 1032 ]; type: functional
[27] = viability loss in HepG2 hepatoma cells – cell-based, ATP luminescence, cherry-pick, activator set 2, cytotoxicity control, dose response (AID 1053143); type: functional
[28] = inhibitors acting on PAX2 in cells – cell-based, plate reader, dry powder samples, selectivity assay for PAX8 inhibitor project, dose response (AID 743048); type: functional;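 note: HEK293 cells carrying a WT1 promoter luciferase reporter driven by expressed Pax2; potency is for inhibition of Pax2 driven reporter signal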
[29] = PAX8-dependent cell viability loss – plate reader, dry powder, dose response (AID 743049); type: functional, cell-based
[30] = IGROV1 cell killing – plate reader, dry powder samples, PAX8 inhibitor project, dose response (AID 743043); type: functional, cell-based; settings: IGROV-1
[31] = COV434 cell viability loss – plate reader, dry powder, SA7, cytotoxicity control for PAX8 inhibitor project, dose response (AID 743145); type: functional, cell-based
[32] = OV-90 cell viability loss – plate reader, dry powder, SA8, PAX8 inhibitor project, dose response (AID 743149); type: functional, cell-based
[33] = OVCAR-3 cell viability loss – plate reader, dry powder samples, PAX8 inhibitor project, dose response (AID 743044); type: functional, cell-based

Structure (SMILES): C[C@@H]1CCCCO[C@H](CN(C)Cc2ccc(Cl)c(Cl)c2)[C@@H](C)CN([C@@H](C)CO)C(=O)c2cc(NC(=O)Nc3ccccc3)ccc2O1
- AC50 [1]: 4.29 µM (active)
- AC50 [2]: 47.9 µM (active)

Structure (SMILES): CCOC(=O)N1CCN(C(=O)c2cc(-c3ccc(F)cc3)[nH]c2C)CC1
- AC50 [3]: 10 µM (inconclusive)
- AC50 [4]: 20 µM (inconclusive)
- IC50 [5]: > 80 µM (inactive)

Structure (SMILES): CN(C)S(=O)(=O)c1ccc(NC(=O)CSc2ncnc3ccccc23)cc1
- IC50 [6]: 16.5 µM (inactive)
- IC50 [7]: > 138 µM (inactive)

Structure (SMILES): S=C(Nc1ccc(Nc2ccccc2)cc1)NC1CCCCCC1
- EC50 [8]: 2.21 µM (active)
- IC50 [9]: > 7.72 µM (active)
- IC50 [10]: > 69.5 µM (inactive)
- EC50 [11]: 29 µM (active)

Structure (SMILES): C[C@H]1CCCCO[C@@H](CN(C)C(=O)Nc2ccc(F)cc2)[C@@H](C)CN([C@@H](C)CO)C(=O)c2cc(NC(=O)C3CCCCC3)ccc2O1
- AC50 [12]: 3.88 µM (active)
- AC50 [13]: 66 µM (active)
- AC50 [14]: 44.2 µM (active)

Structure (SMILES): Cc1cccc(Oc2cc(NC(=O)c3ccccc3)cc([N+](=O)[O-])c2)c1
- AC50 [15]: 3.57 µM (active)
- IC50 [16]: > 69.5 µM (inactive)
- AC50 [17]: 45.5 µM (active)
- AC50 [18]: 13.6 µM (active)
- IC50 [19]: > 69.5 µM (inactive)
- AC50 [20]: 3.09 µM (active)

Structure (SMILES): CCn1c(=O)cc(SCC(=O)Nc2ccc(C)cn2)c2ccccc21
- EC50 [21]: > 79.4 µM (inactive)
- IC50 [22]: 0.469 µM (active)
- EC50 [23]: > 91.2 µM (inactive)
- EC50 [24]: > 79.4 µM (not active)
- EC50 [25]: > 91.2 µM (inactive)
- EC50 [26]: > 79.4 µM (not active)

Structure (SMILES): Cc1cc(NC(=O)c2ccco2)sc1C
- AC50 [27]: 26 µM (active)

Structure (SMILES): CN(C)CCCN(C(=O)CCOc1ccccc1)c1nc2c(F)cccc2s1
- AC50 [28]: > 100 µM (inactive)
- AC50 [29]: 10.8 µM (active)
- AC50 [30]: 44.1 µM (active)
- AC50 [31]: 22.8 µM (active)
- AC50 [32]: 13.1 µM (active)
- AC50 [33]: 44.9 µM (active)
